Experimental data as given in the NIST ThermoML archive (doi:10.1021/je800609u).

Experiment: refractive index (Na D-line) (dimensionless); mn = molality of the nth substance listed, in mol/kg
Conditions: 101 kPa, Liquid

CCCCn1cc[n+](C)c1.[Cl-] [1-butyl-3-methylimidazolium chloride] + O
refractive index
Conditions	298.15 K	308.15 K	318.15 K	328.15 K
m1 = 0.0105	1.333	1.3317	1.3292	1.3273
m1 = 0.023	1.3334	1.332	1.3295	1.3275
m1 = 0.0289	1.3335	1.3323	1.3296	1.3277
m1 = 0.0398	1.334	1.3326	1.33	1.328
m1 = 0.0621	1.3343	1.333	1.3305	1.3288
m1 = 0.0803	1.3349	1.3336	1.331	1.329
m1 = 0.0986	1.3354	1.3341	1.3312	1.3297
m1 = 0.1413	1.3366	1.3351	1.3325	1.3309
m1 = 0.1816	1.3377	1.3363	1.3338	1.3319
m1 = 0.2223	1.3388	1.3373	1.3346	1.3331
m1 = 0.2764	1.3404	1.3389	1.3362	1.3343
m1 = 0.3386	1.3419	1.3403	1.3377	1.3358
m1 = 0.371	1.3428	1.3416	1.3387	1.3369
m1 = 0.4863	1.3457	1.3441	1.3415	1.3398
m1 = 0.599	1.3484	1.3469	1.3442	1.3422
m1 = 0.7152	1.3512	1.3497	1.3467	1.3449
m1 = 0.9754	1.3571	1.3562	1.3528	1.3508
m1 = 1.492	1.3679	1.3661	1.3631	1.3611
m1 = 2	1.3774	1.3754	1.3723	1.3703
m1 = 2.962	1.3923	1.3904	1.3872	1.3849
